Test results from PubChem BioAssay (NCI).
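Exposure lasted 48 hours, with cells grown in 96-well plates and compounds tested at five concentrations. Abbreviation: GI50, concentration required for 50% inhibition of growth. TGI marks complete inhibition of growth.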

Legend:
Experiment in all cases: NCI tumour cell line growth inhibition, 48 h
[1] = system: UO-31 renal
[2] = system: HT29 colon
[3] = system: BT-549 breast
[4] = system: HOP-92 NSCLC
[5] = system: SNB-75 CNS
[6] = system: SK-MEL-5 melanoma
[7] = system: PC-3 prostate
[8] = system: HL-60(TB) leukemia

Compound | GI50 [1] | TGI [1] | GI50 [2] | TGI [2] | GI50 [3] | TGI [3] | GI50 [4] | GI50 [5] | TGI [5] | GI50 [6] | TGI [6] | GI50 [7] | TGI [7] | GI50 [8] | TGI [8] | TGI [4]
N#Cc1cccc(/C=C(/C(=O)c2ccccc2)c2ccccc2)c1 | 5.31 µM | 19 µM | 4.23 µM | 15 µM | 4.16 µM | 15.1 µM | 2.6 µM | 4.69 µM | 17.5 µM | 4.04 µM | 15.6 µM | 6.27 µM | 36.6 µM | – | – | –
CO/N=C(/COc1c(-c2ccccc2)oc2ccccc2c1=O)c1ccc(OC)cc1 | 61.3 µM | > 100 µM | 51.6 µM | > 100 µM | > 100 µM | > 100 µM | – | 58.7 µM | > 100 µM | – | – | > 100 µM | > 100 µM | 21.5 µM | > 100 µM | –
CCOC(=O)Cn1c(C)c(/C=N/NC(=O)c2cc3c(ccc4ccccc43)o2)c2ccccc21 | 0.753 µM | 2.61 µM | 0.355 µM | 1.9 µM | 0.853 µM | 5.13 µM | 0.354 µM | 0.244 µM | 1.42 µM | 0.381 µM | 1.71 µM | 0.332 µM | 6 µM | 0.345 µM | 7.83 µM | 4.94 µM
CCOC(=O)c1ccc(Nc2sc(C(=O)c3cccc([N+](=O)[O-])c3)c(N)c2C#N)cc1 | 0.0543 µM | 20 µM | 0.0398 µM | 3.12 µM | 0.0568 µM | 39.4 µM | 0.109 µM | 0.116 µM | 0.65 µM | 0.156 µM | 12.2 µM | 0.179 µM | > 32.1 µM | – | – | 28.1 µM
Nc1ccn(C2CC(O)C(CO)O2)c(=O)n1 (stereo not drawn) | > 5000 µM | > 5000 µM | > 5000 µM | > 5000 µM | > 5000 µM | > 5000 µM | > 5000 µM | > 5000 µM | > 5000 µM | > 5000 µM | > 5000 µM | > 5000 µM | > 5000 µM | > 5000 µM | > 5000 µM | > 5000 µM
C#C[C@@]1(O)[C@@H](CO)O[C@@H](n2ccc3c(N)ncnc32)[C@@H]1O | – | – | 0.97 µM | – | 1.63 µM | 3.64 µM | 2.04 µM | – | – | 1.56 µM | 2.96 µM | 0.808 µM | 3.54 µM | 1.57 µM | 5.49 µM | 5.56 µM
NC(CSc1nc2ccccn2c1[N+](=O)[O-])C(=O)O (stereo not drawn) | – | 8.54 µM | – | > 100 µM | – | > 100 µM | – | – | > 100 µM | – | > 100 µM | – | > 100 µM | – | – | > 100 µM
O=C(NC(=S)NNC(=S)NNc1ccccc1)c1ccccc1 | 4.69 µM | > 100 µM | 15.1 µM | > 100 µM | 11.3 µM | > 100 µM | – | 3.09 µM | > 100 µM | 3.73 µM | > 100 µM | – | – | 3.27 µM | 8.52 µM | –
O=C(Nc1ccccc1)NS(=O)(=O)c1ccc(N2N=C3c4ccccc4CC3C2c2ccccn2)cc1 (stereo not drawn) | 48.8 µM | > 100 µM | 37.9 µM | > 100 µM | 30.6 µM | > 100 µM | 74.9 µM | > 100 µM | > 100 µM | 23.6 µM | 47 µM | 36.6 µM | > 100 µM | – | – | > 100 µM
O=C1c2cc3c(cc2[C@@H]2[C@H]1c1ccc([N+](=O)[O-])cc1C(=O)N2CCCCl)OCO3 | < 0.01 µM | – | < 0.01 µM | > 100 µM | – | – | < 0.03 µM | < 0.0253 µM | > 100 µM | < 0.01 µM | < 0.01 µM | < 0.01 µM | > 44.5 µM | – | – | > 100 µM
CC(=O)OC1CCC2(C)C(CCC3C4CC=C(C(C)=O)C4(C)OC(=O)CC32)C1 (stereo not drawn) | 2.05 µM | 7.89 µM | 1.6 µM | 3.09 µM | 1.58 µM | 3.08 µM | 1.74 µM | – | – | 2.13 µM | 4.95 µM | 4.56 µM | 16.7 µM | 2.05 µM | 5.05 µM | 4.21 µM
CNNC(=N\S(=O)(=O)c1cc(C(=O)Nc2ccc(Cl)cc2)c(Cl)cc1SCc1ccccc1)/N=C/c1ccc([N+](=O)[O-])s1 | > 100 µM | > 100 µM | > 28.2 µM | > 100 µM | > 100 µM | > 100 µM | 4.54 µM | – | – | 6.57 µM | > 45.9 µM | > 100 µM | > 100 µM | > 100 µM | > 100 µM | 62.2 µM
O=C1OC(C2=CC(=O)c3ccccc3C2=O)C(Cl)=C1Cl (stereo not drawn) | – | 31.8 µM | – | > 100 µM | – | – | – | – | > 100 µM | – | > 100 µM | – | 75.5 µM | – | > 100 µM | > 100 µM
CC1=CC2=C(C(N)=O)C(=O)OC2(C)C(c2ccccc2)C1 (stereo not drawn) | – | > 100 µM | – | > 100 µM | – | > 100 µM | – | – | > 100 µM | – | – | – | > 100 µM | – | > 100 µM | > 100 µM
COc1ccc(/C=C/C(=O)c2ccc3cc(OC)c(OC)cc3c2)cc1OC | 2.85 µM | 12.7 µM | 2.97 µM | 9.47 µM | 2.55 µM | 8.39 µM | 1.65 µM | – | – | 2.3 µM | 6.61 µM | 3.08 µM | 13.3 µM | 3.46 µM | 10.1 µM | 6.26 µM
O=Cc1ccc(Oc2c3ccccc3nc3occc23)cc1 | 26.4 µM | > 100 µM | 23.1 µM | 61.9 µM | – | – | – | 19.3 µM | 85.2 µM | – | – | 19.5 µM | 58.6 µM | 22.9 µM | 56.9 µM | –
CC[C@H](C)[C@H](NC(=O)Nc1ccccc1)C(=O)N(C)[C@H](C[C@@H](OC(C)=O)c1nc(C(=O)N[C@@H](Cc2ccccc2)C[C@H](C)C(=O)OC)cs1)C(C)C | 6.82 µM | > 100 µM | 3.33 µM | > 100 µM | 3.09 µM | 41.2 µM | 1.34 µM | – | – | 1.73 µM | 12.4 µM | 3.47 µM | > 100 µM | – | – | 62.9 µM
COc1cc(Cn2ccc3c2-c2oncc2CC3)cc(OC)c1 | 6.09 µM | 41.6 µM | 3.17 µM | > 100 µM | – | – | 4.25 µM | 1.9 µM | 7.48 µM | 2.75 µM | 10.4 µM | 11 µM | > 100 µM | 2.22 µM | 8.94 µM | 47 µM
